Values quoted from earlier work as cited in the CATMoS acute toxicity set (Mansouri et al. 2021).
Where “and” joins values, the source holds several entries; their conditions need not be identical. Identical values can stand only once. Where a SMILES comes first, the peptide text is derived from it. Bridges are numbered along the chain shown (N, C = ends). [ ]: non-standard residue; d: D form. The star is where a group is joined. Octanoyl(6-Me) = CCC(C)CCCCC(=O)*; Dab = NCC[CH](N)C(=O)O

Experiment: rat acute oral toxicity
Conditions: in vivo
From the text: […]The data set underlying the modeling effort for this project was initially compiled by NICEATM and U.S. EPA’s CCTE. Briefly, LD50 data were collected from rat acute oral systemic toxicity tests, including limit tests, ranges/confidence intervals, and discrete LD50 values. The full data set included 21,200 LD50 entries for 15,688 substances. […] Data were reviewed to ensure that LD50 values with obvious errors in the extracted data such as unit conversion errors (e.g., comma and decimal separator misplacements) were either fixed or removed. After this review, 16,209 LD50 values remained. Many of the chemicals represented had multiple LD50 entries, requiring that a single representative value per Chemical Abstracts Service Registry Number (CASRN) identifier be defined to facilitate modeling efforts. Based on ATWG feedback and to define the representative LD50 as a protective value while accounting for the distribution across multiple LD50s, the median of the lowest quartile was computed using only discrete LD50 values (omitting limit test data and range and confidence interval data). A detailed summary of the data compilation is available online on the NICEATM webpage dedicated to the collaborative modeling project (NTP 2020).
[…][…] For categorical designations, limit test and range/confidence interval LD50 data were integrated wherever possible. As such, the number of chemicals with end point values/calls varies across the modeling end points (Table 3) based on whether chemicals had representative LD50 values and/or other data. If a chemical had both, the representative value was used to determine categorical calls rather than limit test data. Some data were useable only for certain end points and categories depending on the thresholds. For example, ranges that spanned multiple hazard categories were considered only for the binary (very toxic/nontoxic) end points and omitted from rendering a determination for hazard category assignment.
[…]The final data set comprising 11,992 chemicals was split into training and evaluation sets […], respectively. This process was performed semirandomly by ordering chemicals based on the five end points (categorical and continuous LD50 values) and partitioning every fourth record into the evaluation set accordingly. This approach was taken to ensure an equivalent distribution of the LD50 values and the different hazard categories between the training and the evaluation sets without supervised sampling of the chemicals based on structures (Figure 1A). The sources of the chemical structures were also kept equivalent between the two sets, with chemical structures obtained from DSSTox, being the highest quality, representing over 75% of each set (Figure 1B).

Row | SMILES | LD50
1 | CC(=O)OCC#N | 32 mg/kg
2 | CN(CCO)c1ccccc1 | 2830 mg/kg
3 | CCN(CC)C(=O)Nc1ccc(OCC(O)CNC(C)(C)C)c(C(C)=O)c1 (configuration not stated) | 2160 mg/kg
4 | CN(C(=O)C[N+](C)(C)C)C(=O)Oc1cccc2c1OC(C)(C)C2 | 33.6 mg/kg
5 | NC(=O)C1CCN(CCCN2c3ccccc3Sc3ccc(Cl)cc32)CC1 | 620 mg/kg
6 | COP(=S)(OC)SSP(=S)(OC)OC | 10000 mg/kg
7 | CC1(C)S[C@@H]2[C@H](NC(=O)C(C(=O)Oc3ccc4c(c3)CCC4)c3ccccc3)C(=O)N2[C@H]1C(=O)O (some centres not stated) | 4450 mg/kg
8 | CCCCCOC(C[n+]1ccccc1)c1ccc(C(C)C)cc1 (configuration not stated) | 250 mg/kg
9 | CCC(C)CCCCC(=O)NC(CCN)C(=O)NC(C(=O)NC(CCN)C(=O)NC1CCNC(=O)C(C(C)O)NC(=O)C(CCN)NC(=O)C(CCN)NC(=O)C(C(C)O)NC(=O)C(CC(C)C)NC(=O)C(CCN)NC1=O)C(C)O (configuration not stated) ({Octanoyl(6-Me)}-[Dab]T[Dab][Dab][Dab]LT[Dab][Dab]T; lactam 4-C; configuration not given here) | 910 mg/kg
10 | N#Cc1cc([N+](=O)[O-])ccc1N | 3880 mg/kg
11 | ClC(Cl)C(Cl)(Cl)Cl | 920 mg/kg
12 | CCCC(N)(CCC)CCC | 135 mg/kg
13 | CC1CN(C2CCCCCCCCCCC2)CC(C)O1 (configuration not stated) | 2640 mg/kg and 2500 mg/kg
14 | CNc1ccc(C(O)(c2ccc(N(C)C)cc2)c2ccc(N(C)C)cc2)cc1 | 500 mg/kg
15 | CC(C)(C)c1cc(CCC(=O)NCCN)cc(C(C)(C)C)c1O | 1560 mg/kg
16 | CN(SSN(C)C(=O)ON=C1CSCCS1)C(=O)ON=C1CSCCS1 | 160 mg/kg
17 | CCC(C(=O)O)c1ccc(N2Cc3ccccc3C2=O)cc1 (configuration not stated) | 373 mg/kg
18 | CCCCCCCCCCCCNC(N)=S | 1000 mg/kg
19 | NCC(c1cccs1)N1CCCCC1 (configuration not stated) | 1480 mg/kg
20 | CS(=O)(=O)F | 2 mg/kg
21 | CC(=O)OCCC1=CC2CC(C1)C2(C)C (configuration not stated) | 3000 mg/kg
22 | COc1ccccc1C1CCN(CCCc2ccc3c(c2)CCC(=O)N3)CC1 | 500 mg/kg
23 | CC(=O)Nc1ccc([N+](=O)[O-])c(Cl)n1 | 1940 mg/kg
24 | CN(C)C(=O)Nc1cccc(OC(F)(F)C(F)F)c1 | 1260 mg/kg
25 | O=C(Nc1cc(Cl)ccc1Cl)c1cc(Cl)cc(-c2ccccc2)c1O | 6310 mg/kg

Row | SMILES | LD50
26 | Cc1c(Cl)ccc2[nH]c(C(F)(F)F)nc12 | 22 mg/kg
27 | CCc1c(C)[nH]c2c1C(=O)C1CN(C)CCC1C2 (configuration not stated) | 220 mg/kg
28 | CCN(CCCCOC(=O)c1ccc(OC)c(OC)c1)C(C)Cc1ccc(OC)cc1 (configuration not stated) | 1540 mg/kg
29 | C=C(C)Cn1c(N)cc(=O)n(C)c1=O | 1560 mg/kg
30 | CCCCOC(=O)COc1cc(Cl)c(Cl)cc1Cl | 481 mg/kg
31 | NCCOCNc1ccccc1 | 0.625 mg/kg
32 | O=C(O)c1cc(-n2c(-c3ccccc3)cc3c2CCc2ccccc2-3)ccc1O | 450 mg/kg
33 | O=[N+]([O-])C1(Br)COCOC1 | 455 mg/kg
34 | O=CNc1ccc(Cl)cc1 | 750 mg/kg
35 | CC(=O)Nc1ccc2nc(C(F)(F)F)[nH]c2c1 | 23.8 mg/kg
36 | c1cncc(CSSCc2cccnc2)c1 | 2150 mg/kg
37 | CCCN(CCC)S(=O)(=O)c1ccc(C(=O)O)cc1 | 1600 mg/kg
38 | CN(C)c1ccc(C(O)(c2ccc(N(C)C)cc2)c2ccc(N(C)C)cc2)cc1 | 770 mg/kg
39 | [O-][n+]1cc[n+]([O-])c2ccccc21 | 500 mg/kg
40 | NCC(O)CO (configuration not stated) | 7500 mg/kg
41 | CC(C)COC(=O)CCc1ccco1 | 1950 mg/kg
42 | CCS(=O)CC(C)SP(=O)(OC)OC (configuration not stated) | 89 mg/kg
43 | CC(C)(C)NC[C@H](O)COc1nsnc1N1CCOCC1 | 1030 mg/kg
44 | CC(C)(N)Cc1ccccc1 | 188 mg/kg
45 | COC(=O)c1c(C(F)F)nc(C(F)(F)F)c(C(=O)OC)c1CC(C)C | 1420 mg/kg
46 | CN(C)N=Nc1cccc(C(N)=O)c1 | 54 mg/kg
47 | NNc1nncc2ccccc12 | 90 mg/kg
48 | CCOC(=O)C1(c2ccccc2)CCCN(C)CC1 (configuration not stated) | 580 mg/kg and 355 mg/kg
49 | CNc1c2c(nn1C)CCCC2 | 1850 mg/kg
50 | FC(F)(F)c1ccc(Cl)c(Cl)c1 | 1150 mg/kg

Row | SMILES | LD50
51 | COP(=O)(OC)OC1=C(Cl)C2C=CCC12 (configuration not stated) | 96 mg/kg
52 | C=CCc1ccccc1 | 5540 mg/kg
53 | CCCCCCCCCCO | 4720 mg/kg
54 | Nc1c(/N=N/c2ccc([N+](=O)[O-])cc2)c(S(=O)(=O)O)cc2cc(S(=O)(=O)O)c(/N=N/c3ccc(-c4ccc(/N=N/c5ccc(O)cc5)cc4)cc3)c(O)c12 | 14700 mg/kg
55 | N#CCCC1CN2CCc3cc4c(cc3C2CC1=O)OCO4 (configuration not stated) | 1410 mg/kg
56 | CCC1(CCl)COC1 | 570 mg/kg
57 | CCCCCCCC/C=C\CCCCCCCC(=O)NCCS(=O)(=O)O | 4000 mg/kg
58 | O=NN(CCO)CCO | 7500 mg/kg
59 | C=CC(C)(O)CCCCC (configuration not stated) | 1800 mg/kg
60 | CC(=O)Nc1cccc2c3ccccc3n(C)c12 | 3120 mg/kg
61 | CCCCOCCOC(=O)c1ccccc1C(=O)OCCOCCCC | 8380 mg/kg
62 | CCC(=O)Nc1ncc(Cl)s1 | 316 mg/kg
63 | C=CCOc1ccccc1C(=O)NC1CCCCC1 | 1200 mg/kg
64 | Cc1cc(F)ccc1NC(=O)c1cc(Cl)cc(-c2ccc(Cl)cc2)c1O | 2510 mg/kg
65 | CC(=O)N[C@@H](CC(C)C)C(=O)N[C@@H](CC(C)C)C(=O)N[C@H](C=O)CCCNC(=N)N | 720 mg/kg
66 | N#Cc1ccc(C2CCCc3cncn32)cc1 (configuration not stated) | 200 mg/kg
67 | CCSP(=O)(OC)OC | 13.8 mg/kg
68 | Clc1ccc(C(Cl)(Cl)c2ccc(Cl)cc2)cc1 | 168 mg/kg
69 | CC(Oc1ccc(Oc2nc3ccc(Cl)cc3o2)cc1)C(=O)O (configuration not stated) | 2360 mg/kg
70 | O=C(c1ccc2c(c1)C(=O)OC2=O)c1ccc2c(c1)C(=O)OC2=O | 12800 mg/kg
71 | CCOC(=O)C1=C(COCCOCCN)NC(C)=C(C(=O)OC)[C@@H]1c1cccc(Cl)c1Cl | 136 mg/kg
72 | CCOC(=O)C1(c2ccccc2)CCN(CCOCCO)CC1 | 230 mg/kg
73 | CN(C)c1ccc(O)cc1 | 689 mg/kg
74 | CC1(C)C(C(=O)OC(C#N)c2cccc(Oc3ccccc3)c2)C1(C)C (configuration not stated) | 18 mg/kg
75 | CCCCOC(=O)c1c[n+](C)c2n(c1=O)C(C)CCC2 (configuration not stated) | 1370 mg/kg

Row | SMILES | LD50
76 | NCCCCC(CN)CCCN (configuration not stated) | 760 mg/kg
77 | CC(Cl)CCl (configuration not stated) | 1950 mg/kg
78 | CCOP(N)(=O)SC (configuration not stated) | 5 mg/kg
79 | O=C1CCCCC1(CCN1CCCCCC1)C(=O)OCc1ccccc1 (configuration not stated) | 450 mg/kg
80 | Cc1ccn(CO)n1 | 1650 mg/kg
81 | O=C(c1ccccc1)c1ccc(O)cc1 | 12100 mg/kg
82 | Cc1ccc(NC2=NCCN2)c(Cl)c1 | 420 mg/kg
83 | Cc1ccc(C)c([N+](=O)[O-])c1 | 2440 mg/kg
84 | CC(C)=CC1C(C(=O)OCc2cccc(Oc3ccccc3)c2)C1(C)C (configuration not stated) | 500 mg/kg
85 | O=S1(=O)CCC(NNc2ccccc2)C1 (configuration not stated) | 2380 mg/kg
86 | C=Cc1ccc(CC)cn1 | 1230 mg/kg
87 | CC(=NOC(=O)N(C)SSN(C)C(=O)ON=C(C)SCCC#N)SCCC#N | 80 mg/kg
88 | O=C(O)c1cc(O)c(O)c(OC(=O)c2cc(O)c(O)c(O)c2)c1 | 2260 mg/kg
89 | O=[N+]([O-])c1cc(Cl)c2nc(C(F)(F)F)[nH]c2c1 | 9.87 mg/kg
90 | CCOC(=S)C=Cc1ccc([N+](=O)[O-])cc1 | 970 mg/kg
91 | C=COCCOCCCC | 3100 mg/kg
92 | CCOP(=S)(OCC)N(SN(C)C(=O)ON=C(C)SC)C(C)C | 325 mg/kg
93 | C=CC(O)C#N (configuration not stated) | 65 mg/kg
94 | CCOP(=S)(OCC)O/N=C(\C#N)c1ccccc1 | 300 mg/kg
95 | CCC(C)OC(C[n+]1ccccc1)c1ccccc1 (configuration not stated) | 250 mg/kg
96 | C=C(C)C(=O)OCCC#N | 7330 mg/kg
97 | O=C(Cl)c1cccc(S(=O)(=O)Cl)c1 | 1780 mg/kg
98 | NC(Cl)(Cl)c1nc(Cl)c(Cl)c(Cl)c1Cl | 1500 mg/kg
99 | COP(=S)(OC)OC1CC(C)CCC1C(C)C (configuration not stated) | 750 mg/kg
100 | O=C(NN=C1C=CC(=NO)C=C1)c1ccccc1 | 100 mg/kg

Row | SMILES | LD50
101 | CC(Br)C=CCl (configuration not stated) | 74 mg/kg
102 | CCCC(=O)OC1CCC(N2CCCCC2)CC1 (configuration not stated) | 1910 mg/kg
103 | CCc1ncc(C)nc1C | 456 mg/kg
104 | Oc1ccc(Cl)cc1-c1ccccc1 | 3500 mg/kg
105 | Cc1cc(O)c(C(C)(C)C)cc1Sc1cc(C(C)(C)C)c(O)cc1C | 2340 mg/kg
106 | C=CCOC(Cn1ccnc1)c1ccc(Cl)cc1Cl (configuration not stated) | 227 mg/kg
107 | CCOC(C1=NCC(C)(C)CN1)c1cccc(Cl)c1 (configuration not stated) | 95 mg/kg
108 | NCCCOCCOCCO | 6500 mg/kg
109 | CCN(CC)c1ccc(N=Nc2ccc(S(=O)(=O)N(C)C)cc2)c(S(=O)(=O)NCC[n+]2ccccc2)c1 | 5120 mg/kg
110 | CCSCC | 3420 mg/kg
111 | CCCCCCCCCCCCCCCCOC(=O)C1CC1 | 12200 mg/kg
112 | OCCN1CCN(CCC=C2c3ccccc3Sc3ccc(Cl)cc32)CC1 | 660 mg/kg
113 | CCCCOC(=O)CC#N | 4180 mg/kg
114 | NNC(=O)CSc1cc(Oc2ccccc2)ncn1 | 220 mg/kg
115 | O=S(=O)(Cl)CCl | 372 mg/kg
116 | C=COCCOCCO | 4930 mg/kg
117 | COC(=O)c1ccc2nc(C(F)(F)F)[nH]c2c1 | 22.3 mg/kg
118 | Oc1cccc2cc3cccc(O)c3c(O)c12 | 3220 mg/kg
119 | CCCC(C(=O)c1ccc(C)cc1)N1CCCC1 (configuration not stated) | 620 mg/kg
120 | CN(C)N=Nc1ccccc1 | 310 mg/kg
121 | CO[Si](OC)(OC)c1ccccc1 | 1050 mg/kg
122 | CC1=NN(c2ccc(C)cc2)C(=O)C1 | 7450 mg/kg
